Active and inactive are the calls of the source.
Assays:
INS1 = test: INS-1E mitochondrial potential loss inhibitors – cell-based, JC-1 fluorescence, dry powder, set 2, dose response (AID 488867); format: functional; settings: Rattus norvegicus
Phospholipase D1 = Phospholipase D1 (Homo sapiens, UniProt Q13393); test: cellular phospholipase D1 inhibition IC50 – cell-based, dose response (AID 602151); format: functional;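 further: cellular PLD1 assay in Calu-1 cells stimulated with PMA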
Phospholipase D2 = Phospholipase D2 (Homo sapiens, UniProt O14939); test: cellular phospholipase D2 inhibition IC50 – cell-based, dose response (AID 602147); format: functional;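 further: cellular assay in HEK293 cells overexpressing GFP-tagged PLD2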
[1] = target: T1, Carboxy-terminal domain RNA polymerase II polypeptide A small phosphatase 1 (Homo sapiens, UniProt Q9GZU7); test: CTDSP1 inhibitors, concentration-response, biochemical, absorbance readout, ultra-high-throughput screen actives (AID 540297); format: functional
T1 sequence (Q9GZU7 whole entry): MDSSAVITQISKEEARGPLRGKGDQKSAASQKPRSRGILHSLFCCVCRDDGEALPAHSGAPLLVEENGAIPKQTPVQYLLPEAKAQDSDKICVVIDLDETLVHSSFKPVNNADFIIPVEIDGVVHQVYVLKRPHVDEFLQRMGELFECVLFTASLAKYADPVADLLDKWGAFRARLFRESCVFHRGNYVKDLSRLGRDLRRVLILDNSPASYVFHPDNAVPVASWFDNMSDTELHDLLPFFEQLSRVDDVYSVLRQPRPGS

Caspase-7 = target: T2, Caspase-7 (Homo sapiens, UniProt P55210); test: caspase-7 enzyme inhibition, selectivity check – biochemical, DEVD-R110 fluorescence, cherry-pick, selectivity assay for caspase-6 inhibitor project, dose response (AID 743295); format: functional
T2 sequence (P55210 whole entry): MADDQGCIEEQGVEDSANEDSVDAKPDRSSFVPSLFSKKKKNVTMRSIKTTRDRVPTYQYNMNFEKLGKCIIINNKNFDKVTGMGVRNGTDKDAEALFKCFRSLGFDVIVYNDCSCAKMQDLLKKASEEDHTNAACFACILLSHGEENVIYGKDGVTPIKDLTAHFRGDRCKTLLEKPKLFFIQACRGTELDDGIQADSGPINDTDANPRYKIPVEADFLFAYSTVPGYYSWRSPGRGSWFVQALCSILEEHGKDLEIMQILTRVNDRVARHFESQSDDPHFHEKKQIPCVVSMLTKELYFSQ

Caspase-8 = Caspase-8 (Homo sapiens, UniProt Q14790); test: inhibitors of purified CASP8 protease – biochemical, Z-IETD-R110 fluorescence, cherry-picked samples, selectivity assay for caspase-6 inhibitor project, dose response (AID 743294)
[2] = target: Beta-adrenergic receptor kinase 1 (Homo sapiens, UniProt P25098); test: aptamer displacement from bead-bound GRK2 – biochemical, cherry pick 1, bead flow cytometry, dose response (AID 504500)
Caspase-6 = target: T3, Caspase-6 (Homo sapiens, UniProt P55212); test: inhibition of CASP6 peptide cleavage – biochemical, VEID-R110 fluorescence, cherry-pick, dose response (AID 720632)
T3 sequence (P55212 whole entry): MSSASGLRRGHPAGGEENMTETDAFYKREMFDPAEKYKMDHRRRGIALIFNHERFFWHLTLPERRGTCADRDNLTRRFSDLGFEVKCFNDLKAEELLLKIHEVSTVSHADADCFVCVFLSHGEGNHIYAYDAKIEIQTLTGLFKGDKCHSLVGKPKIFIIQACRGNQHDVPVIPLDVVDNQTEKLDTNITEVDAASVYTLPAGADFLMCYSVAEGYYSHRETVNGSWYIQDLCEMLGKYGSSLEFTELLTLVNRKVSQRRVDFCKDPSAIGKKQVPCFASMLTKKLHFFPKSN

[3] = target: Dual specificity protein kinase CLK1 (Homo sapiens, UniProt P49759); test: inhibition of human CLK1 activity – biochemical, cherry-picked samples, selectivity assay for Dyrk1A inhibitor project, dose response (AID 588811)
[4] = target: Voltage-gated inwardly rectifying potassium channel KCNH2 (Homo sapiens, UniProt Q12809); settings: Potency;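 further: confirmatory quantitative high-throughput screen measuring inhibition of hERG channel activity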
HEK293 = test: EBV LMP1 TES2 canonical NF-kB signalling blockers – cell-based, HEK293, luciferase, cherry-pick, dose response (AID 588343); format: functional; settings: Homo sapiens
Aspartyl aminopeptidase = Aspartyl aminopeptidase (Plasmodium falciparum 3D7, UniProt Q8I2J3); test: Counterscreen for inhibitors of M1 and M17 aminopeptidases: QFRET-based biochemical high throughput dose response assay for inhibitors of the Plasmodium falciparum M18 Aspartyl Aminopeptidase (PFM18AAP). [Related PubChem assays: 1619 (Screening assay (M17LAP inhibitors).), 1445 (Screening assay (M1AAP inhibitors).)]
Procathepsin L = Procathepsin L (Homo sapiens, UniProt P07711); test: CTSL1 protease inhibition – biochemical, QFRET, 1536-well, counter-screen for M1/M17 aminopeptidase inhibitor project, dose response (AID 2214)
Leucine aminopeptidase = target: T4, Leucine aminopeptidase (Plasmodium falciparum 3D7, UniProt Q8IL11); test: P. falciparum M17LAP inhibitors, primary screen, biochemical, fluorogenic H-Leu-NHMec substrate, 1536-well (AID 1619); format: functional
T4 sequence (Q8IL11 whole entry): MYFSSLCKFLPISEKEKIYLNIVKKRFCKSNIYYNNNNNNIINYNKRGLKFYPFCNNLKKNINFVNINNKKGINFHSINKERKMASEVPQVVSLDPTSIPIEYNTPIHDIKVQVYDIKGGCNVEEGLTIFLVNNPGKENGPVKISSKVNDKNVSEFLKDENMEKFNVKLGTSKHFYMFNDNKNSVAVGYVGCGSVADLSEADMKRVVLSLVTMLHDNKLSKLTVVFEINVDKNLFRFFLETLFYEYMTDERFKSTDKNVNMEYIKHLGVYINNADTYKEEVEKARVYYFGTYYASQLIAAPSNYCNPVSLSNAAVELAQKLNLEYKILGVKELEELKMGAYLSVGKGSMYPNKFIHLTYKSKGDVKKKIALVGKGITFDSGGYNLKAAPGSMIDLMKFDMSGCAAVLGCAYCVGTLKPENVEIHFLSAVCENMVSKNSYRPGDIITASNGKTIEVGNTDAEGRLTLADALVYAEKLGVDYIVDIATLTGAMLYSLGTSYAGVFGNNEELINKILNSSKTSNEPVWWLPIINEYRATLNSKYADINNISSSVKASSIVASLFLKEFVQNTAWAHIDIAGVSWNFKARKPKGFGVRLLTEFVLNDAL

Vero = test: viability of Vero cells under compound – cytotoxicity control for flavivirus capping enzyme inhibitors (AID 588742); format: functional; settings: Chlorocebus sabaeus
[5] = target: Potassium voltage-gated channel subfamily KQT member 2 (Rattus norvegicus, UniProt O88943, W236L); test: potentiation of rat KCNQ2 current – cell-based, automated electrophysiology, mechanism study for KCNQ2 potentiator project, dose response (AID 2603); format: functional
[6] = target: T5, Replicative DNA helicase DnaB (Mycobacterium tuberculosis, UniProt P9WMR3); test: DnaB intein splicing inhibitors, dose response, biochemical, cell-free fluorescence (AID 449749); format: functional
T5 sequence (P9WMR3 whole entry): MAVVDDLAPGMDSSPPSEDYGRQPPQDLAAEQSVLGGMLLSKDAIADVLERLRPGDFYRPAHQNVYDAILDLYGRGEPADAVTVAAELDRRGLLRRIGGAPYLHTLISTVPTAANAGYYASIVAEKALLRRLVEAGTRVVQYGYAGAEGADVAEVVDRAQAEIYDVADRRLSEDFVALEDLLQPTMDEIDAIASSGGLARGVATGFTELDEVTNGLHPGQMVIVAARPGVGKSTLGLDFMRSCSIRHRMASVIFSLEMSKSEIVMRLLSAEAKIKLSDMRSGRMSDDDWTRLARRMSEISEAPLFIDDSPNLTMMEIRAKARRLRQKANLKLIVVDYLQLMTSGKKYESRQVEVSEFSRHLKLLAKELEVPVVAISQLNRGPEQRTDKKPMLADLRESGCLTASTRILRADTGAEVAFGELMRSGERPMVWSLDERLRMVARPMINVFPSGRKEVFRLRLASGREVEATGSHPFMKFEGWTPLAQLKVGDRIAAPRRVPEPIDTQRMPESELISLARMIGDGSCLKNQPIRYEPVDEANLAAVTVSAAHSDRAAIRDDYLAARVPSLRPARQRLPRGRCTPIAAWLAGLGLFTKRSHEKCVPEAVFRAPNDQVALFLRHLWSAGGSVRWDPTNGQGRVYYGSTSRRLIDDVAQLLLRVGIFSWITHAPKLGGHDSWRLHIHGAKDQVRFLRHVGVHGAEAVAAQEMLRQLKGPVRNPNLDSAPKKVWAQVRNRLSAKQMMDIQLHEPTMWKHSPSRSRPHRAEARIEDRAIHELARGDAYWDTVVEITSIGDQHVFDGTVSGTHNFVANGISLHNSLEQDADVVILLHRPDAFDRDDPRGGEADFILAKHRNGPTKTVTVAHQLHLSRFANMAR

Genome polyprotein = Genome polyprotein (dengue virus type 2, UniProt P29990); test: flavivirus cap methylation enzyme inhibition – biochemical, confirmation dose response, primary screen (AID 588689); format: functional
[7] = target: T6, Hepatocyte nuclear factor 4-alpha (Homo sapiens, UniProt P41235); format: functional, cell-based;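 further: biochemical luminescence-based dose-response counterscreen measuring inhibition of HNF4 dimerization, run alongside a screen for blockers of ABHD5–perilipin-5 interaction; split luciferase complementation of HNF4 fusion proteins in cell lysate measuring dimerization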
T6 sequence (P41235 whole entry): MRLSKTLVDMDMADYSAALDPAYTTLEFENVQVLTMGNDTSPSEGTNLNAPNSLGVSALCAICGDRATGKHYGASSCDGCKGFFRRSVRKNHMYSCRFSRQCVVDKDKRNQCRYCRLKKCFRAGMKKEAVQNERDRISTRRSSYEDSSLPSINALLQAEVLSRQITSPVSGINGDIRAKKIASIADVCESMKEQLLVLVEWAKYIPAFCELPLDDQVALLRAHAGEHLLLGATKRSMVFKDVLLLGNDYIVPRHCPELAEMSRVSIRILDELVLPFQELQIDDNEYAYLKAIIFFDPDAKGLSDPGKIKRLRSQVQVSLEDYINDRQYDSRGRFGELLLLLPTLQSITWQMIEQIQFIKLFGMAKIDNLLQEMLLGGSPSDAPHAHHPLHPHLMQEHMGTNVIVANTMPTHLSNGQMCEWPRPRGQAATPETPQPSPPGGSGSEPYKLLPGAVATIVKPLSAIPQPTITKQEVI

[8] = loss of viability in HepG2 cells – cell-based, CellTiter-Glo, cherry-picked, cytotoxicity control for Shn3 inhibitor project, dose response (AID 624134); format: functional
[9] = reduction of Shn3 3'UTR-driven luciferase in osteoblasts – cell-based, Clone20 osteoblasts, firefly luciferase, cherry-picked, dose response (AID 624132); format: functional;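 further: firefly luciferase luminescence from reporter carrying the Shn3 3'UTR in osteoblasts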
[10] = non-specific 3'UTR reporter inhibition in Clone20-Shn3RL – cell-based, Renilla luciferase, cherry-picked, counter-screen for Shn3 inhibitor project, dose response (AID 624133); format: functional
Protein RecA = target: T7, Protein RecA (Mycobacterium tuberculosis, UniProt P9WHJ3); test: Fluorescence Cell-Free Homogeneous Dose Retest to Identify Inhibitors of RecA-Intein Splicing Activity. [Related pubchem assays (depositor defined):AID2097, AID2223, AID489010, AID492950]; format: functional
T7 sequence (P9WHJ3 whole entry): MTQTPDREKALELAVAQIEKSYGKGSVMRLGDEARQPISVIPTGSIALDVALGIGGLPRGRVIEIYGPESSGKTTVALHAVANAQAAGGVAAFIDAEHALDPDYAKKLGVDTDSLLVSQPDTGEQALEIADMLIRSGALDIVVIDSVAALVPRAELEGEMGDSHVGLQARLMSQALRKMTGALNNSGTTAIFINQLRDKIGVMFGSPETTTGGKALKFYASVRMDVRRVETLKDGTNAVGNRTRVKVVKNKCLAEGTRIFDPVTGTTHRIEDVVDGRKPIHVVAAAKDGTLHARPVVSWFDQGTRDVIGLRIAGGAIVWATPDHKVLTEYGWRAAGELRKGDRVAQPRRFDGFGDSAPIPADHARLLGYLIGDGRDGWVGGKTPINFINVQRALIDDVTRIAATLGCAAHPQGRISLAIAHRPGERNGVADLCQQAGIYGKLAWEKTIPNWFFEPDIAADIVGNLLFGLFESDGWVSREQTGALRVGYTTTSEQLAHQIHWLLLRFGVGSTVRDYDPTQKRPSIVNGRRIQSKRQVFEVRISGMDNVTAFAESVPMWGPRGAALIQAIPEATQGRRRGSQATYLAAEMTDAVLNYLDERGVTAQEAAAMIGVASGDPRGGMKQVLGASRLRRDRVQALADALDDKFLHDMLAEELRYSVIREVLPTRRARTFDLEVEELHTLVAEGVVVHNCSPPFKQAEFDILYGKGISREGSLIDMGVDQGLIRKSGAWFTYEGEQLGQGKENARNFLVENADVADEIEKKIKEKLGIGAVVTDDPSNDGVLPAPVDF

Aspartyl aminopeptidase, sequence (Q8I2J3 whole entry): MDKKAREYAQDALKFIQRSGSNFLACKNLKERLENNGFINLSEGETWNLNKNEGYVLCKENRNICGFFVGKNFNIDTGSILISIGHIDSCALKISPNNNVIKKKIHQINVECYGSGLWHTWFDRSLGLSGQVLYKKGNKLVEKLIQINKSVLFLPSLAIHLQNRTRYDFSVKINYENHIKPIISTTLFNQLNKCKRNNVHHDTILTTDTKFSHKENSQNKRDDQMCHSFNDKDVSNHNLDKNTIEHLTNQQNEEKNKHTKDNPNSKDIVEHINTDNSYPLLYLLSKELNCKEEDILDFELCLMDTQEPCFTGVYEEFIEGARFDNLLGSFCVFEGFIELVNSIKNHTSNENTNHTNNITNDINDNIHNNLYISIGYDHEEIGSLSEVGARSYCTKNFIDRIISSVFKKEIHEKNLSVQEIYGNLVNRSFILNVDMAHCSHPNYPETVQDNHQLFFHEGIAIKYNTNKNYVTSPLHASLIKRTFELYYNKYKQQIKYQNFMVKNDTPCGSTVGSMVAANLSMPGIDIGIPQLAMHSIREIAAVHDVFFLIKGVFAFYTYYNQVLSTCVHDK
Caspase-8, sequence (Q14790 217-374 limits assumed): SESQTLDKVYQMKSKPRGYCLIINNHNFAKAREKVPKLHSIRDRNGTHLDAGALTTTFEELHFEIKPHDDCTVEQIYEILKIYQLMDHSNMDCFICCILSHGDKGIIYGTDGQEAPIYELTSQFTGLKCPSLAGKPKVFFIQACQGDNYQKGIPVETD
Caspase-8, sequence (Q14790 385-479 limits assumed): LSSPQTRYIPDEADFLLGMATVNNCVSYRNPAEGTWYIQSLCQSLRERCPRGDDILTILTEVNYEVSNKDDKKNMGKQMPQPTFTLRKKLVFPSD
Phospholipase D1, sequence (Q13393 whole entry): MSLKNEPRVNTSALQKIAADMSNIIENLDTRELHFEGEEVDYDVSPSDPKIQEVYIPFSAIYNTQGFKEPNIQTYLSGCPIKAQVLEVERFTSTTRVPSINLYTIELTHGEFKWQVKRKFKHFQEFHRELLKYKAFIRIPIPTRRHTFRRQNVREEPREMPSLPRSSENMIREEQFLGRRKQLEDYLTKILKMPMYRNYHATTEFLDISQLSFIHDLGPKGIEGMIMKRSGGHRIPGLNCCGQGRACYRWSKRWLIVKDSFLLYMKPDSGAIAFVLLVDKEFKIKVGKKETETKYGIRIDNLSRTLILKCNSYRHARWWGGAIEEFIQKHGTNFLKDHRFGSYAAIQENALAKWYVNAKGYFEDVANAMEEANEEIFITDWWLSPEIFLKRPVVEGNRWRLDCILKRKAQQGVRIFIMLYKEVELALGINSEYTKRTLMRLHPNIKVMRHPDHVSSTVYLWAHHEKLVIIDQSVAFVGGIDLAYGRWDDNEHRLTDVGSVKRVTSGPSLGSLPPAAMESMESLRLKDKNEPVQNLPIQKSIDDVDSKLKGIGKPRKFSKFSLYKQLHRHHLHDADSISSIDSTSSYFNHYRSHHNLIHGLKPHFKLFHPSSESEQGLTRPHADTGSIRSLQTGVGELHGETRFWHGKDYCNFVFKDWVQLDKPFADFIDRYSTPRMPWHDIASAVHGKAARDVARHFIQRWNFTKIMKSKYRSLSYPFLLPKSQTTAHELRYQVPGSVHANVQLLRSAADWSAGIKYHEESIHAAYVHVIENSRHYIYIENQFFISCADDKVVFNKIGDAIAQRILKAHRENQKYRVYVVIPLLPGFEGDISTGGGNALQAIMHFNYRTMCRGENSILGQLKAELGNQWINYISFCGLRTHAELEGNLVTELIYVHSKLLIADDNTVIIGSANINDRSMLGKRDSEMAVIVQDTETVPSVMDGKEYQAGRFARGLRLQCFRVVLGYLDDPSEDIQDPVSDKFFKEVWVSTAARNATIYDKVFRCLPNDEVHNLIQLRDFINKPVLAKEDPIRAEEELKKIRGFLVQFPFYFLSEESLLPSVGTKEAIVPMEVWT
Phospholipase D2, sequence (O14939 whole entry, the tested form may be a part): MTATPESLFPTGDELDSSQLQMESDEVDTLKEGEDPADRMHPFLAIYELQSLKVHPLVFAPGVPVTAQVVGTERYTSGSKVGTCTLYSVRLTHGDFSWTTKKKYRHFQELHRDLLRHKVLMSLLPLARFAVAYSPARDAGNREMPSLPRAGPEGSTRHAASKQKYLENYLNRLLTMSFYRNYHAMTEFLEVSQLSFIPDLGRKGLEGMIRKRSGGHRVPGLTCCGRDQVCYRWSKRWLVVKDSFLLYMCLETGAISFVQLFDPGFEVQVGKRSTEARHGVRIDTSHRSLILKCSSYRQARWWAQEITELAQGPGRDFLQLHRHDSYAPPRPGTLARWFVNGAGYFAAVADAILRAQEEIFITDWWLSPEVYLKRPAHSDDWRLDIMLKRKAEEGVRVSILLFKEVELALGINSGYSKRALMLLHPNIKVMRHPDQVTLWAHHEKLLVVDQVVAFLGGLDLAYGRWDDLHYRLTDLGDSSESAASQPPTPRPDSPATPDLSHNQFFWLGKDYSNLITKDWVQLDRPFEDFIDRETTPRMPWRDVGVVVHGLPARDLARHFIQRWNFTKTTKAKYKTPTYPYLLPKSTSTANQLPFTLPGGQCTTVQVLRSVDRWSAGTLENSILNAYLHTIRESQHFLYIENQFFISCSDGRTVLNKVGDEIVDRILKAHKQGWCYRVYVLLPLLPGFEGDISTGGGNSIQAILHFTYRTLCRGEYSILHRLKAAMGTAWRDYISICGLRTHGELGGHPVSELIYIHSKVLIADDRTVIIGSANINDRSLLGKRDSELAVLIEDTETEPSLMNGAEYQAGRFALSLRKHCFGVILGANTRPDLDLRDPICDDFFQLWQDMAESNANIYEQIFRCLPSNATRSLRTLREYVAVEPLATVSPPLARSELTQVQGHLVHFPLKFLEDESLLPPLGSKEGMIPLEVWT
Genome polyprotein, sequence (P29990 2492-3391 limits assumed): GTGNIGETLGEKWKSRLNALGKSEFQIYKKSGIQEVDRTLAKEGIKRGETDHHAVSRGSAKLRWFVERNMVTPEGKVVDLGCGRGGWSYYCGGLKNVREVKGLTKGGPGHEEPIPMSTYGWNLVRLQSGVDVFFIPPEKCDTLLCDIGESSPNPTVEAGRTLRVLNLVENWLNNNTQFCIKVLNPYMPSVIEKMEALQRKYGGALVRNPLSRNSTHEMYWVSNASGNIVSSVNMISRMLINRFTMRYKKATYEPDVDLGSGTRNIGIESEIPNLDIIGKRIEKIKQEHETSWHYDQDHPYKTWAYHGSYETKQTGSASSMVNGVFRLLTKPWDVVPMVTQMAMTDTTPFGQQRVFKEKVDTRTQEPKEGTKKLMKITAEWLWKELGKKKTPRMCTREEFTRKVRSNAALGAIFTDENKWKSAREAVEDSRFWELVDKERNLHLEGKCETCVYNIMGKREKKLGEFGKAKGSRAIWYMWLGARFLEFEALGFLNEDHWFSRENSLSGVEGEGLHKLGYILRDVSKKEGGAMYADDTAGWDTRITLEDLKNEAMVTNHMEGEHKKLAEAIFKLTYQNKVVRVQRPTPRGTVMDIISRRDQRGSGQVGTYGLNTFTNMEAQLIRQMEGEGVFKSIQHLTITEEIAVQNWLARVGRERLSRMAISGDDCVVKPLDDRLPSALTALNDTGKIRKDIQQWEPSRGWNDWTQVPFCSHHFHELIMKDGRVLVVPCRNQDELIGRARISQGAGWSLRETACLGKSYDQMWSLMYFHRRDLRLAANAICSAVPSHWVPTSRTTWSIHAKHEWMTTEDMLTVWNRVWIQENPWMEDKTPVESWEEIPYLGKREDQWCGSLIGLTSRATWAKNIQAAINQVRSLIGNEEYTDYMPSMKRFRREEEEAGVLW
Voltage-gated inwardly rectifying potassium channel KCNH2, sequence (Q12809 whole entry): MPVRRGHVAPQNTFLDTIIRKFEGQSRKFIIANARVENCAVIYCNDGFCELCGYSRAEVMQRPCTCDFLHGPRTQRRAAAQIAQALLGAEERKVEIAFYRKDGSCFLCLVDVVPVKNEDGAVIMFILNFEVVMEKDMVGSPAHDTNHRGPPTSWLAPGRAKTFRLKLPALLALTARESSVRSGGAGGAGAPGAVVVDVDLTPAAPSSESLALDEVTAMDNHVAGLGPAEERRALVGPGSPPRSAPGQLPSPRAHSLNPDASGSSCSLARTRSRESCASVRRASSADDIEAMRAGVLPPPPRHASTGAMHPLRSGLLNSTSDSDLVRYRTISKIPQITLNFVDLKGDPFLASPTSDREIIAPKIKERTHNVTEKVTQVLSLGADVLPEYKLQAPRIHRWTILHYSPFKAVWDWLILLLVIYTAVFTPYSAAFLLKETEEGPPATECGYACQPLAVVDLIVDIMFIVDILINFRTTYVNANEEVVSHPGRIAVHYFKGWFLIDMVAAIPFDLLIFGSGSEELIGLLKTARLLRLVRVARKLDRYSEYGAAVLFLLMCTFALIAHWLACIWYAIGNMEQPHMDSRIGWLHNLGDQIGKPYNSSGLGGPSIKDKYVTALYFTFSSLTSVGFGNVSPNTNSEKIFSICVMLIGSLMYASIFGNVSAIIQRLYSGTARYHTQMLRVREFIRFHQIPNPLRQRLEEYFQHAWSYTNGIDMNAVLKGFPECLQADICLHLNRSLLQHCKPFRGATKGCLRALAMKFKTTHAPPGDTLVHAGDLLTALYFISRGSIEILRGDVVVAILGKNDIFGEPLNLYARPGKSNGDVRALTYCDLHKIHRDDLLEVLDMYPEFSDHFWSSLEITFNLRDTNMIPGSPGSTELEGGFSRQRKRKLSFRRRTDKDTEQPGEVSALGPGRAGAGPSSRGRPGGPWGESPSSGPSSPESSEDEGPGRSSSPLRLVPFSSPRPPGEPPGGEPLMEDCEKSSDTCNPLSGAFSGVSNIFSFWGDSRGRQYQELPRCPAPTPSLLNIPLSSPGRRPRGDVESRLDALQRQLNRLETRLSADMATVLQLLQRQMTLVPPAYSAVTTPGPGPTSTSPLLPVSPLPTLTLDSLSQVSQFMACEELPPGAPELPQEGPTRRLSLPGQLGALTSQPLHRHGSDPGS

## COc1ccc(S(=O)(=O)N(C)C[C@@H]2Oc3c(NC(=O)NC(C)C)cccc3C(=O)N([C@@H](C)CO)C[C@H]2C)cc1
INS1
  AC50: 46.4 µM (active)

## C[C@H](CN1CCC(n2nnc3ccccc32)CC1)NC(=O)c1ccc2ccccc2c1
Phospholipase D1
  IC50: 3.8 µM (active)
Phospholipase D2
  IC50: 12 µM (active)

## O=C(O)C1CCCCC1C(=O)Nc1cccc(Br)c1 (stereo not drawn)
[1]
  IC50: 3.06 µM (active)
Caspase-7
  AC50: > 70 µM (inactive)
Caspase-8
  AC50: 25.8 µM (active)
[2]
  EC50: 3.85 µM (active)
Caspase-6
  AC50: 0.669 µM (active)

## CN(Cc1nccs1)c1ncnc2ccc(-c3ccc4c(c3)OCO4)cc12
[3]
  AC50: < 0.00195 µM (active)

## CC(C)(C)c1ccc(S(=O)(=O)/C=C/C#N)cc1 [BAY-11-7085]
[4]
  AC50: 35.5 µM (inconclusive)

## Cc1cc(C(=O)COC(=O)c2cccnc2O)c(C)n1-c1ccccc1
HEK293
  AC50: 9.69 µM (active)
Aspartyl aminopeptidase
  IC50: > 73.5 µM (not active)
Procathepsin L
  IC50: > 59.6 µM (not active)
Leucine aminopeptidase
  IC50: 2.67 µM (active)

## CCc1nnc(NC(=O)c2nc(S(=O)(=O)Cc3ccccc3)ncc2Cl)s1
Vero
  CC50: 27.6 µM (active)
[5]
  EC50: 17.3 µM (active)
[6]
  AC50: 18.5 µM (active)
Genome polyprotein
  IC50: > 100 µM (active)
[7]
  IC50: 5.95 µM (active)
[8]
  AC50: > 70 µM (inactive)
[9]
  AC50: 2.72 µM (active)
[10]
  AC50: 11.1 µM (active)
Protein RecA
  EC50: 5.09 µM (active)

Source: ChEMBL document CHEMBL1201862, “PubChem BioAssay data set” (2004)
